According to patent US20170182031A1, “REDUCING DRUG LIKING IN A SUBJECT” (Purdue Pharma, priority 2014, published 2017):
Read-outs that look alike come from different tables or passages of the source.

Tests used:
[1] = cited from earlier work

C=CCN1CC[C@]23c4c5ccc(O)c4O[C@H]2C(=O)CC[C@@]3(O)[C@H]1C5 [naloxone]
oral bioavailability [1]: < 3% | Time by which mean plasma naloxone concentration was BLQ (naloxone 1.875 μg/kg IV): ≤ 15 min | Time by which mean plasma naloxone concentration was BLQ (naloxone 15 μg/kg IV): ≤ 120 min | Time of maximum mean plasma naloxone concentration (post-infusion, each treatment): 5 min
